US12171842B2, “Method for hyperthermially treating a cancer” (Imam Abdulrahman Bin Faisal University, priority 2021, dated 2024)

Legend:
[1] = test system: Human mammary adenocarcinoma (MCF7) cells; assay: Cell viability (MTT) and EC50, MCF7; assay type: cell-based; settings: for effect on cell viability (in words): MCF7, 48 h, four doses (nanocomposites 0.025-0.5 mg/ml)
Protocol: (§1) Human mammary adenocarcinoma (MCF7) and the non-cancerous human foreskin fibroblasts (HFF) cell lines were used to assess the cytotoxic effect of the prepared compounds. Cells were cultured in a DMEM culture medium containing 10% HI—FBS, 1% Penicillin Streptomycin, and 1% MEM NEAA. Cells were maintained in a humidified setting at 37° C. with 5% CO2. For cell viability assay, cells were seeded in a 96-well plate with a density of 20,000 cells/well. While for microscopic images, 50,000 cells/well were plated on an eight-well chamber slide. On the following day, cells were switched to the starve culture medium that contains 0.5% HI—FBS. Cells were maintained for 24 h in the starve medium before the treatment was added.
(§2) MCF7 and HFF cells were treated with the subsequent conditions for 48 h: CuFe2O4/Mesosilicalite, Curcumin, Cisplatin, CuFe2O4/Mesosilicalite/Curcumin, CuFe2O4/Mesosilicalite/Curcumin/Cisplatin, or CuFe2O4/MCM-41/Curcumin/Cisplatin. Treatment concentrations of CuFe2O4/Mesosilicalite, CuFe2O4/Mesosilicalite/Curcumin, CuFe2O4/Mesosilicalite/Curcumin/Cisplatin, and CuFe2O4/MCM-41/Curcumin/Cisplatin nanocomposites were: 0.025, 0.05, 0.1, and 0.5 mg/ml. Based on the drug loading experiments, simple calculations were followed to reflect the actual quantity of curcumin and cisplatin that adsorbed on CuFe2O4/Mesosilicalite nanoparticles. According to the loading experiments, 1 mg of CuFe2O4 nanoparticles contains 0.25 mg and 0.045 mg of curcumin and cisplatin, respectively. Thus, if CuFe2O4/Mesosilicalite concentration was 0.5 mg/ml, there is 0.125 mg/ml of adsorbed curcumin and 0.0225 mg/ml of functionalized cisplatin. Therefore, the treatment concentrations of curcumin were: 0.00625, 0.0125, 0.025 and 0.125 mg/ml and the treatment concentrations of cisplatin were: 0.001125, 0.00225, 0.0045 and 0.0225 mg/ml.
(§3) To assess the compounds' cytotoxicity, 3-(4,5-dimethylthiazol-2-yl)-2,5-diphenyltetrazolium bromide (MTT), a cell viability assay, was used. It measures the cell viability by assessing the mitochondria's ability to convert yellow MTT solution into purple formazan insoluble crystals. […] The difference in color intensity was measured by SYNERGY-neo2 BioTek ELISA reader at 570 nm as a measuring wavelength. The technical triplicate readings of each condition were averaged, and the absorbance from MTT negative control was deducted from these readings. An initial reading was measured before MTT addition at the same wavelength. Thus, to remove undesirable interference in the measurement, the initial reading was subtracted from the final reading. Then, the treatment groups were analyzed by comparing them to the control (untreated cells). Cell viability was calculated using the following equation (1): […]

[2] = test system: non-cancerous human foreskin fibroblasts (HFF); assay: Cell viability (MTT) and EC50, HFF; assay type: cell-based; settings: for effect on cell viability (in words): HFF, 48 h, four doses (nanocomposites 0.025-0.5 mg/ml)
Protocol: as §1, §2, §3

[3] = Cell viability (MTT) and EC50, HFF; assay type: cell-based, human; settings: human, HFF cells (non-cancerous human foreskin fibroblasts); HFF, third dose (0.1 mg/ml nanocomposite; 0.025 mg/ml curcumin), 48 h, versus untreated control
Protocol: as §1, §2, §3

Structure (SMILES): N.N.[Cl][Pt][Cl] [Cisplatin, cisplatin]
- effect on cell viability (in words) [1]: reduction in cell viability
- EC50 Value ([1]; MCF-7 cell line, 48 h MTT, best-fit line): 4.425 µg/mL
- EC50 Value ([2]; HFF cell line, 48 h MTT, best-fit line): 3.763 µg/mL
- effect on cell viability (in words) [2]: reduction in cell viability

Structure (SMILES): COc1cc(/C=C/C(=O)CC(=O)/C=C/c2ccc(O)c(OC)c2)ccc1O [Curcumin]
- viability at 25 µg/mL ([1]; Homo sapiens, MCF7, third dose (0.1 mg/ml nanocomposite; 0.025 mg/ml curcumin), 48 h, versus untreated control): 80.7%
- effect on cell viability (in words) [1]: reduced cell viability only at the highest concentration
- viability at 48 h, 0.025 mg/ml [3]: 84.1%
- effect on cell viability (in words) [2]: minimally reduced the cell viability
